Assay results from patent US20190136188A1, “4HPR AND ITS USE IN THE CULTURING OF HEMATOPOIETIC STEM CELLS” (UNIVERSITY HEALTH NETWORK, priority 2016, published 2019).

Key:
CB stem and prog cells = experiment: Flow cytometry for ROS (CELLROX), mitochondrial membrane potential (TMRE), mitochondrial mass (mitotracker green); type: cell-based, human
DEGS1 = target: T1, DEGS1 (Homo sapiens, UniProt O15121); experiment: Lipid mass spectrometry (LC/MS) of sphingolipids, DEGS1 activity; type: cell-based
T1 construct: endogenous in cells; host or cells: lineage-depleted human cord blood (lin- CB) cells
T1 sequence (O15121 1-323): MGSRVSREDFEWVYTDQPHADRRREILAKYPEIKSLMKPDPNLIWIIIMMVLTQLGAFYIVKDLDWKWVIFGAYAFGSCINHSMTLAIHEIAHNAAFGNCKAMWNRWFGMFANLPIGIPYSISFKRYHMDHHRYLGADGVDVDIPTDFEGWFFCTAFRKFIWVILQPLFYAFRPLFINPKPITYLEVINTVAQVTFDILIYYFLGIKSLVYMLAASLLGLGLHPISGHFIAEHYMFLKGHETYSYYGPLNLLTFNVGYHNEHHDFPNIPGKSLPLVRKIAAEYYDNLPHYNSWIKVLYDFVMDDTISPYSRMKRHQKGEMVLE
Description: All experiments following are at this 4HPR concentration unless otherwise indicated. […] (C) LC/MS was used to profile the ceramide (Cer), dihydroceramide (dhCer), sphingosine (sph), dihydrosphingosine (dhSph), S1P and dihydro-S1P (dhS1P) levels in lin− CB cells cultured for 8 days with control or 4HPR (n=2).

[1] = tested on: long-term repopulating cell (LTRC) in NSG mice; experiment: Serial (secondary) transplantation limiting dilution analysis, LTRC frequency; type: in vivo
Description: (A) Experimental scheme (B) Representative FACS analysis data of in vitro culture for 16 HSC dose time course (n=3). The number of (C) viable cells, (D) CD15+ myeloid cells, (E) GlyA+ erythroid cells, and (F) CD34+ primitive cells measured for the 16 LTRC dose with HTS flow cytometry analysis at day 8 post-treatment for vehicle control or 4HPR prior to xenotransplantation (n=5 biological replicates, 4 in technical triplicate, marked with different symbols). (G) Human CD45+ engraftment at 16 weeks post transplant in injected femur (n=4, 5 mice/biological experiment). Lineage analysis of control or 4HPR transplanted mice from FIG. 5G for (H) B lymphoid, (I) myeloid, (J) erythroid, and (K) primitive CD34+ at the 16 LTRC dose. (L) CD45+ cells were isolated from 5 biological experiments of the 16 LTRC dose primary mice and transplanted at limiting doses into secondary recipients for 16 weeks. Human CD45+ marking of >0.1% was considered positive for secondary engraftment. Limiting dilutation analysis was performed using ELDA software and the long-term repopulating cell (LTRC) frequency for each biological replicate plotted and the average LTRC frequency calculated.
(A) The number of cells following 8 days of ex vivo culture at the 16 LTRC dose grown as in FIG. 5A for the indicated drug treatments (n=2). […] (2 biological replicates) (E) CD45+ cells were isolated from 2 biological experiments of the 16 LTRC dose primary mice and transplanted at limiting doses into secondary recipients for 16 weeks. Human CD45+ marking of >0.01% was considered positive for secondary engraftment. Limiting dilutation analysis was performed using ELDA software and the long-term repopulating cell (LTRC) frequency for each biological replicate plotted and the average LTRC frequency calculated.
To determine if 4HPR preserves functional HSC in CB liquid culture, we devised an experimental protocol to test the effect of 4HPR treatment in short-term ex vivo expansion culture on repopulation in serial NSG xenotransplantation to functionally read out LT-HSC (FIG. 5A). […]

[2] = stem and prog cells, day 2 and day 3
[3] = lin-CB cells cultured 8 days, 2 uM 4HPR

dhCer and dhSph levels (DEGS1; 8 day culture, alone or in combination with UM171 and SR1): increases dhCer and dhSph
levels of the signaling lipid S1P (DEGS1; [3]): not altered
total ceramide compared to control (DEGS1; [3]): decrease total ceramide
total dihydroceramide compared to control (DEGS1; [3]): increase total dihydroceramide
Structure (SMILES): CC1=C(/C=C/C(C)=C/C=C/C(C)=C/C(=O)Nc2ccc(O)cc2)C(C)(C)CCC1 [4HPR, N-(4hydroxyphenyl)retinamide]
mitochondrial mass (CB stem and prog cells; progenitor cells, 2 days of treatment): does decrease mitochondrial mass
ROS (CB stem and prog cells; [2]): decreased
mitochondrial mass (CB stem and prog cells; [2]): decreased
mitochondrial membrane potential (CB stem and prog cells; [2]): decreased
mitochondrial mass (CB stem and prog cells; stem cells, 2 days of treatment): without significantly altering mitochondrial mass in stem cells
mitochondrial mass (CB stem and prog cells; stem cells, D3 post-treatment): decreases mitochondrial mass by day 3 post-treatment in stem cells
frequency of LT-HSC ([1]; 4HPR added to SR1+UM171 treatment compared to SR1+UM171 treatment alone): doubled
average LTRC frequency ([1]; 4HPR treated cells, through 32 weeks of xenotransplantation): 1e6 CD45+ cells
increase in SRC over control treatment ([1]; through 32 weeks of xenotransplantation, n=5, p=0.02): 3 fold
